Measurements taken from the NIST ThermoML archive (doi:10.1016/j.fluid.2015.12.021).
± gives the expanded uncertainty stated by the source.

conditions: Crystal; visual observation

SMILES	Normal melting temperature [°C]
Cc1ccc(C(=O)O)cc1 [4-methylbenzoic acid]	179.60 ± 0.5
O=C(O)c1ccccc1 [benzoic acid]	122.4 ± 0.5
c1ccc2ccccc2c1 [naphthalene]	80.26 ± 0.5
c1ccc2c(c1)ccc1ccccc12 [phenanthrene]	99.24 ± 0.5
O=C(O)CCCCC(=O)O [1,6-hexanedioic acid]	153.20 ± 0.5
CCCCCCCCCCCCCCCCCC(=O)O [octadecanoic acid]	69.80 ± 0.5
